Results on 28 compounds are retold here after US20070037831A1, “Methods of using PDE 5 inhibitors for the treatment of congestive heart failure” (priority 2004, published 2007).

Where only a bound is given, the exact number is not on record here.

One assay deals with T1, type V phosphodiesterase (Homo sapiens, UniProt O76074).
T1 construct: endogenous in cells; host or cells: vasculature of patients with heart failure (in vivo)
Particulars: patients with heart failure, acute; cited from earlier work.

For the next assay, the target named is T2, ETA receptor (Homo sapiens, UniProt P25101).
T2 sequence (P25101 21-427): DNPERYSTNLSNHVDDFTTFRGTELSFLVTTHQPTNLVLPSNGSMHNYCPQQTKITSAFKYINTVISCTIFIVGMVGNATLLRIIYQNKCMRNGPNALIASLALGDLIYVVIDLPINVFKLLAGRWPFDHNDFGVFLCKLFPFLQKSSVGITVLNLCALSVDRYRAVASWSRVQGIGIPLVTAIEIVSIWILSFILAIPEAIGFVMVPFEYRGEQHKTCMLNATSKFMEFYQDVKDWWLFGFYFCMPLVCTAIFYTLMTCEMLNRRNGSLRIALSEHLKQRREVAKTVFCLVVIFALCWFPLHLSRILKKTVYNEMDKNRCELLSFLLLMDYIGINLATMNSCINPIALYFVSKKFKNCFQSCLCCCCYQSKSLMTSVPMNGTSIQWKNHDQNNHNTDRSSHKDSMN
Particulars: among the ETA receptor antagonists; cited from earlier work.

Another assay concerns the target PDE V (Homo sapiens, UniProt O76074). The assay can be described thus: PDE V inhibition (PDE V IC50). It counts as biochemical.

As to `CCCc1nn(C)c2c(=O)[nH]c(-c3cc(S(=O)(=O)N4CCN(C)CC4)ccc3OCC)nc12` [Sildenafil], at type V phosphodiesterase, the endothelium dependent vasodilation entry is “acutely enhance endothelium dependent vasodilation”.

`Cc1cc2c(cc1CC(=O)c1sccc1S(=O)(=O)Nc1onc(C)c1Cl)OCO2` [sitaxsentan]: at ETA receptor, the “selectivity over ETB” value is listed as “particularly selective over ETB”.

As to `CCn1c(=O)c2c(nc(NC3CCCC3)n2Cc2ccc(OC)cc2)n(C)c1=O` [Compound 24], at PDE V, the half-inhibitory concentration (IC50) lay in the range of 10 to 15 nM.

As to `CCn1c(=O)c2c(nc(NC3CCOCC3)n2Cc2ccc(S(N)(=O)=O)c(Br)c2)n(CC)c1=O` [Compound 190], at PDE V, the IC50 fell in the range of 5 to 10 nM.

Compound `COc1cccc(Cn2c(NC3CCCCC3)nc3c2c(=O)n(C)c(=O)n3C)c1` [Compound 141] returned an IC50 against PDE V of 15 to 100 nM.

Turning to `CCn1c(=O)c2c(nc(N[C@@H]3CCC[C@H]3O)n2Cc2ccc(OC)c(C)c2)n(CCO)c1=O` [Compound 111], the IC50 against PDE V fell in the range of 10 to 15 nM.

`CCn1c(=O)c2c(nc(NC3CCCC3O)n2Cc2ccc(OC)cc2)n(CC(C)C)c1=O` (stereo not shown) [Compound 40] yielded an IC50 at PDE V of 10 to 15 nM.

In turn, `CCn1c(=O)c2c(nc(NC3CCCCC3)n2Cc2ccc(O)c(C)c2)n(CCO)c1=O` [Compound 112] gave an IC50 at PDE V of 10 to 15 nM.

`CCn1c(=O)[nH]c2nc(NC3CCCC3)n(Cc3ccc(OC)cc3)c2c1=O` [Compound 93] yielded an IC50 at PDE V of 10 to 15 nM.

At PDE V, `CCn1c(=O)c2c(nc(NC3CCS(=O)(=O)CC3)n2Cc2ccc(OC)c(Br)c2)n(CC)c1=O` [Compound 194] showed a half-maximal inhibitory concentration (IC50) of 15 to 100 nM.

As to `CCn1c(=O)c2c(nc(NC3(CO)CC=CC3)n2Cc2ccc(OC)cc2)n(CC)c1=O` [Compound 62], the 50% inhibitory concentration (IC50) against PDE V was at most 5 nM.

At PDE V, `CCn1c(=O)c2c(nc(NC3CCCCC3)n2Cc2ccc(S(N)(=O)=O)c(Cl)c2)n(CC)c1=O` [Compound 179] had a half-maximal inhibitory concentration (IC50) of at most 5 nM.

As to `CCn1c(=O)c2c(nc(NC3CCCCC3)n2Cc2ccc(O)cc2)n(C)c1=O` [Compound 78], the concentration for half-maximal inhibition (IC50) against PDE V was 5 to 10 nM.

On PDE V, `CCn1c(=O)c2c(nc(N[C@@H]3CCC[C@H]3O)n2Cc2ccc(O)c(C)c2)n(CCO)c1=O` [Compound 113] displayed a half-inhibitory concentration (IC50) of 15 to 100 nM.

`Cn1c(=O)c2c(nc(NC3CCCCC3)n2Cc2ccc(F)cc2)n(C)c1=O` [Compound 138] returned an IC50 against PDE V of 15 to 100 nM.

For the compound `Cc1cccc(Cn2c(NC3CCCCC3)nc3c2c(=O)n(C)c(=O)n3C)c1` [Compound 131], at PDE V, the IC50 lay within 15 to 100 nM.

The compound `CCn1c(=O)c2c(nc(NC3CCCCC3)n2Cc2ccc(OC)cc2)n(CC)c1=O` [Compound 61] gave an IC50 against PDE V of at most 5 nM.

As to `CCn1c(=O)c2c(nc(NC3CCOCC3)n2Cc2ccc(S(N)(=O)=O)c(Cl)c2)n(CC)c1=O` [Compound 191], the half-inhibitory concentration (IC50) at PDE V is at most 5 nM.

On PDE V, `CCn1c(=O)c2c(nc(NC3CCCCC3)n2Cc2ccc(OC)cc2)n(CC(C)C)c1=O` [Compound 39] gave an IC50 of 10 to 15 nM.

`COc1ccc(Cn2c(NC3CCCCC3)nc3c2c(=O)n(C)c(=O)n3C)cc1` [Compound 33] displayed an IC50 against PDE V of 10 to 15 nM.

The compound `Cn1c(=O)c2c(nc(NC3CCCCC3)n2Cc2ccc3c(c2)OCO3)n(C)c1=O` [Compound 142] came in with an IC50 against PDE V of at most 5 nM.

`COc1ccc(Cn2c(NC3(CO)CC=CC3)nc3c2c(=O)n(C)c(=O)n3C)cc1` [Compound 34]: on PDE V, the 50% inhibitory concentration (IC50) was in the range of 10 to 15 nM.

On PDE V, `COc1ccc(Cn2c(NC3(CO)CCCC3)nc3c2c(=O)n(C)c(=O)n3C)cc1` [Compound 13] registered an IC50 of 15 to 100 nM.

In turn, `CCn1c(=O)c2c(nc(N[C@@H]3CCC[C@H]3O)n2Cc2ccc(S(N)(=O)=O)cc2)n(CC)c1=O` [Compound 126] registered a half-maximal inhibitory concentration (IC50) on PDE V of 15 to 100 nM.

For the compound `CCn1c(=O)c2c(nc(N[C@H]3CC[C@H](O)CC3)n2Cc2ccc(OC)c(Br)c2)n(CC)c1=O` [Compound 125], the IC50 at PDE V lay in the range of 10 to 15 nM.

At PDE V, `CCn1c(=O)[nH]c2nc(NC3CCCCC3)n(Cc3ccc(O)cc3)c2c1=O` [Compound 94] displayed a concentration for half-maximal inhibition (IC50) of 10 to 15 nM.

In the case of `CCn1c(=O)c2c(nc(NC3CCCCC3)n2Cc2ccc(C(=O)OC)cc2)n(CC)c1=O` [Compound 99], at PDE V, the 50% inhibitory concentration (IC50) was in the range of 5 to 10 nM.

With `CCn1c(=O)c2c(nc(NC3CCCCC3)n2Cc2ccc(C(F)(F)F)cc2)n(CC(C)C)c1=O` [Compound 96], the half-maximal inhibitory concentration (IC50) against PDE V lay within 15 to 100 nM.
